From PMC3034247 (Cell metabolism, 2010) come the findings set out here.

Usually Kd stands for the equilibrium constant for the complex coming apart.

Where a chain is given by its changes, count along the chain named.

Assay in all cases: [3H]cholesterol saturation binding, Ni-NTA capture, scintillation counting
The target in experiment [1] is T1, NPC2 (NPC2-His10) (Homo sapiens, UniProt P61916).
T1 sequence (P61916 20-151): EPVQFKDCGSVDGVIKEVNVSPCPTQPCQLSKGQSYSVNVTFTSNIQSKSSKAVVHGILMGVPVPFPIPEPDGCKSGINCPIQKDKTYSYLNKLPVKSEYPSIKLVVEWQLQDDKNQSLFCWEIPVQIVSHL

The target in experiment [2] is T2, NPC2 (NPC2-His10) (Homo sapiens, UniProt P61916, V81D).
T2 sequence (P61916 20-151 V81D): T1 sequence (P61916 20-151) with V62D

Experiment [3] concerns the target T3, NPC2 (NPC2-His10) (Homo sapiens, UniProt P61916, V81A).
T3 sequence (P61916 20-151 V81A): T1 sequence (P61916 20-151) with V62A

On to `CC(C)CCC[C@@H](C)[C@H]1CC[C@H]2[C@@H]3CC=C4C[C@@H](O)CC[C@]4(C)[C@H]3CC[C@]12C` [cholesterol], for which the Kd is 81 nM at NPC2 (NPC2-His10) [1], 72 nM on NPC2 (NPC2-His10) [2] and 80 nM on NPC2 (NPC2-His10) [3].
